Columns and labels:
HiBit-BRM fusion protein = target: T1, HiBit-BRM fusion protein (Homo sapiens, UniProt P51531); experiment: HiBiT-BRM cell-based degradation assay (Nano-Glo HiBiT Lytic Detection, 24 h); details: stable HeLa cell line expressing HiBiT-BRM, top dose 30 μM
T1 construct: expressed in transfected cells
Procedure: (§1) Procedure: A stable HeLa cell line expressing HiBiT-BRM was generated. On day 0, 5000 cells were seeded in 40 μL of media into each well of 384-well cell culture plates. On day 1, cells were treated with 120 nL DMSO or 120 nL of 3-fold serially DMSO-diluted compounds (10 points in duplicate with 30 μM as final top dose). Subsequently plates were incubated for 24 h in a standard tissue culture incubator and equilibrated at room temperature for 15 minutes. Nano-Glo HiBiT Lytic Detection System (Promega N3050) reagent was freshly prepared and 20 ul was added to each well. Upon addition of this LgBit-containing reagent, the HiBiT and LgBiT proteins associate to form the luminescent NanoBiT luciferase. The plates were shaken for 10 minutes at room temperature and the bioluminescence read using an EnVision plate reader (PerkinElmer).
(§2) The degradation % was calculated using the following formula: % degradation=100%−100%×(Lumsample−LumLC)/(LumHC−LumLC). DMSO treated cells are employed as High Control (HC) and 2 μM of a known BRM/BRG1 degrader standard treated cells are employed as Low Control (LC).

[1] = target: T2, HiBit-BRG1 fusion protein (Homo sapiens, UniProt P51532); experiment: HiBiT-BRG1 cell-based degradation assay (Nano-Glo HiBiT Lytic Detection, 24 h); details: stable HeLa cell line expressing HiBit-BRG1 and LgBit, top dose 30 μM, read-out: BRG1 HiBit Degradation Maximum (%)
T2 construct: expressed in transfected cells
T2 sequence (P51532 whole entry, the tested form may be a part): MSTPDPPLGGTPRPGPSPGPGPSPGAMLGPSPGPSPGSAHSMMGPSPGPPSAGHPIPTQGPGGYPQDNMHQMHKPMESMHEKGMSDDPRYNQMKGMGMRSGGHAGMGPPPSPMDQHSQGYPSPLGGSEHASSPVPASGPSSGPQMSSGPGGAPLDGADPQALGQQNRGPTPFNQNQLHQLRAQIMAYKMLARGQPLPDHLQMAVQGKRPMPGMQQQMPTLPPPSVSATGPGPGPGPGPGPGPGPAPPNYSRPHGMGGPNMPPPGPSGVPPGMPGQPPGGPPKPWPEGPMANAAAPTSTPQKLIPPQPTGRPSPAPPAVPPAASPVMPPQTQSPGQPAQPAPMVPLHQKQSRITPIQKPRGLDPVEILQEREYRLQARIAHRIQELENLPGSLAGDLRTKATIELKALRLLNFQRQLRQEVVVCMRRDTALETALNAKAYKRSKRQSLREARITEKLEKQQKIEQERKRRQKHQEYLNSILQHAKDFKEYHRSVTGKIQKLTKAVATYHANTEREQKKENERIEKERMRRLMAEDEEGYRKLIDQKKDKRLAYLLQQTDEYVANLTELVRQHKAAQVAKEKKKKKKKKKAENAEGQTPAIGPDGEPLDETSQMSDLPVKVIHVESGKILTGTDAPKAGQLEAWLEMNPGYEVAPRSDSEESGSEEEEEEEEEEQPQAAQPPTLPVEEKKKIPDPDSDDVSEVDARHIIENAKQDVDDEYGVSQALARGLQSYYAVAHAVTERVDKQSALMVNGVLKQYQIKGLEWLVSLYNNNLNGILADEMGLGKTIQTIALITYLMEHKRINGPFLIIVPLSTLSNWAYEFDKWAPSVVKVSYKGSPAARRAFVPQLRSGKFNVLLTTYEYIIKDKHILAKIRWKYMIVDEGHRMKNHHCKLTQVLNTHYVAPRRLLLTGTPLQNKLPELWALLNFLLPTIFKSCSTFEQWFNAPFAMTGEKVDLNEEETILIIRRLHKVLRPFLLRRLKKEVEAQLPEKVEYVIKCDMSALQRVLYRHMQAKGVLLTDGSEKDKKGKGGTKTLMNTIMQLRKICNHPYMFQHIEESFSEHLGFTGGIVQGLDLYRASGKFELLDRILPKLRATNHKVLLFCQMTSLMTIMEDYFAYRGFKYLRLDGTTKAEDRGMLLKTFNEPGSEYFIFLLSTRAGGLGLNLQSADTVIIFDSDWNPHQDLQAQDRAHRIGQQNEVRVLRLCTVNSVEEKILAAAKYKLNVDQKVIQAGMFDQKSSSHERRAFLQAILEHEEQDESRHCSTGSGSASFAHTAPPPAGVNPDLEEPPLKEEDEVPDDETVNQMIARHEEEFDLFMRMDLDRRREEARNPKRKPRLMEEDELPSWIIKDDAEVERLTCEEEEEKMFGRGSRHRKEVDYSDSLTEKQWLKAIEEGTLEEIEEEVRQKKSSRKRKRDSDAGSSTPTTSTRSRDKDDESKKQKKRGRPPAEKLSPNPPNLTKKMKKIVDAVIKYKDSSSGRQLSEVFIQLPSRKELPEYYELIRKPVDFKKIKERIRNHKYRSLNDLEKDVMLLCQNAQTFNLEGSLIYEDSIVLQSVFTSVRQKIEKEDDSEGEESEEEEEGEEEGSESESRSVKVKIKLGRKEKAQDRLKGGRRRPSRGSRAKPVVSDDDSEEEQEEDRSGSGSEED
Procedure: as §1
For measurement of BRG1 degradation, a stable HeLa cell line expressing HiBit-BRG1 and LgBit was generated. The same protocol as above was then followed.
as §2

T1 sequence (P51531 whole entry, the tested form may be a part): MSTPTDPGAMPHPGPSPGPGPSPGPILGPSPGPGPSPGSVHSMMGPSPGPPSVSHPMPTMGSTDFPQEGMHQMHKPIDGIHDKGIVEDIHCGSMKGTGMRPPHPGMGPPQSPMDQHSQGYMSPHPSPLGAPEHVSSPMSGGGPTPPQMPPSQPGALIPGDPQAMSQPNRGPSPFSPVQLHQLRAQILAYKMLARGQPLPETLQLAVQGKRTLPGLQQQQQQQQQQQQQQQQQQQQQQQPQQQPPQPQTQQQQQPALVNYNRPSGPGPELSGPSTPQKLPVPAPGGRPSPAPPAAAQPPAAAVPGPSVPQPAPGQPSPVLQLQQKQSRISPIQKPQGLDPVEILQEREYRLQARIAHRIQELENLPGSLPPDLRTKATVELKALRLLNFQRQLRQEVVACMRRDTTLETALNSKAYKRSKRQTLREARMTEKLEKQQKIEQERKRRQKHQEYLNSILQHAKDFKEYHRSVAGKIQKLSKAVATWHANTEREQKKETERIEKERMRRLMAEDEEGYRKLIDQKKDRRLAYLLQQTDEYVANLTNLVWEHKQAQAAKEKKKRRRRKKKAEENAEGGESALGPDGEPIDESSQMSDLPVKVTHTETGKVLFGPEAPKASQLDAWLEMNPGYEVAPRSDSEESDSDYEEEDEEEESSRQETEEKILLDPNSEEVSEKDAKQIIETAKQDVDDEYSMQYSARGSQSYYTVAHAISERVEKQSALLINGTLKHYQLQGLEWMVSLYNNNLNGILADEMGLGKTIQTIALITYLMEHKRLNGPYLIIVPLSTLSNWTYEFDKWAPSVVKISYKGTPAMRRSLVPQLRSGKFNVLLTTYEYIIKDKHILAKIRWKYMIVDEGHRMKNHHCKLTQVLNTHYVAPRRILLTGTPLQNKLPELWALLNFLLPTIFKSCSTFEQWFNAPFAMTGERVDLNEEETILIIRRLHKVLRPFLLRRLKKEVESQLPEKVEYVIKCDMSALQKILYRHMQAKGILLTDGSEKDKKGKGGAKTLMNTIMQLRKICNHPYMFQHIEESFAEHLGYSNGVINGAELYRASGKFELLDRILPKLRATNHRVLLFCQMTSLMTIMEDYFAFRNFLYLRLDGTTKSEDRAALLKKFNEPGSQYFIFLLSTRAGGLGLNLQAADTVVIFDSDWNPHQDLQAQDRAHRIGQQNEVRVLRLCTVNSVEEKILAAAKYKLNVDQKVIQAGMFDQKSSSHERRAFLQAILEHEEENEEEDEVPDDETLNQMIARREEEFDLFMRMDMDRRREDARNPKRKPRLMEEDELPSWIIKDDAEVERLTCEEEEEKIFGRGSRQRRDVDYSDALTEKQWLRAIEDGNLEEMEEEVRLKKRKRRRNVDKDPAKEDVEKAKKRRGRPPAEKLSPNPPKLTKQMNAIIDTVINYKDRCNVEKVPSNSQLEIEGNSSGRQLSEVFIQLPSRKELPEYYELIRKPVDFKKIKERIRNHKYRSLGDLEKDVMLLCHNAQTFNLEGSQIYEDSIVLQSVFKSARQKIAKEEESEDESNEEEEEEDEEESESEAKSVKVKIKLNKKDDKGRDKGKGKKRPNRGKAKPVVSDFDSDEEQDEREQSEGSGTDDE

Row | SMILES | BRM HiBit Degradation Maximum (%) (HiBit-BRM fusion protein) | Dmax [1]
1 | Nc1nnc(-c2ccccc2O)cc1OCCC12CC(NC(=O)CCCOc3cccc4c3C(=O)N(C3CCC(=O)NC3=O)C4=O)(C1)C2 (centres unmarked) [Compound 18, N-(3-(2-((3-amino-6-(2-hydroxyphenyl)pyridazin-4-yl)oxy)ethyl)bicyclo[1.1.1]pentan-1-yl)-4-((2-(2,6-dioxopiperidin-3-yl)-1,3-dioxoisoindolin-4-yl)oxy)butanamide] | C (“C” indicates maximum degradation < 50%) | < 50%
2 | Nc1nnc(-c2ccccc2O)cc1OCC12CC(C(=O)N3CCN(CC4CN(c5ccc6c(c5)C(=O)N(C5CCC(=O)NC5=O)C6=O)C4)CC3)(C1)C2 (centres unmarked) [Compound 102, 5-(3-((4-(3-(((3-amino-6-(2-hydroxyphenyl)pyridazin-4-yl)oxy)methyl)bicyclo[1.1.1]pentane-1-carbonyl)piperazin-1-yl)methyl)azetidin-1-yl)-2-(2,6-dioxopiperidin-3-yl)isoindoline-1,3-dione] | B (“B” indicates maximum degradation ≥ 50%) | < 50%
3 | Nc1nnc(-c2ccccc2O)cc1OCC12CC(CNC(=O)CCCCCCCCNc3ccc4c(c3)C(=O)N(C3CCC(=O)NC3=O)C4=O)(C1)C2 (centres unmarked) [Compound 9, N-[[3-([[3-amino-6-(2-hydroxyphenyl)pyridazin-4-yl]oxy]methyl)bicyclo[1.1.1]pentan-1-yl]methyl]-9-[[2-(2,6-dioxopiperidin-3-yl)-1,3-dioxoisoindol-5-yl]amino]nonanamide] | C (“C” indicates maximum degradation < 50%) | < 50%
4 | Cc1ncsc1-c1ccc(CNC(=O)[C@@H]2C[C@@H](O)CN2C(=O)[C@@H](NC(=O)CCCCCCCCCC(=O)NCC23CC(COc4cc(-c5ccccc5O)nnc4N)(C2)C3)C(C)(C)C)cc1 [Compound 39, N1-((3-(((3-amino-6-(2-hydroxyphenyl)pyridazin-4-yl)oxy)methyl)bicyclo[1.1.1]pentan-1-yl)methyl)-N11-((S)-1-((2S,4R)-4-hydroxy-2-((4-(4-methylthiazol-5-yl)benzyl)carbamoyl)pyrrolidin-1-yl)-3,3-dimethyl-1-oxobutan-2-yl)undecanediamide] | B (“B” indicates maximum degradation ≥ 50%) | < 50%
5 | CN(CCNC(=O)COc1ccc2c(c1)C(=O)N(C1CCC(=O)NC1=O)C2=O)CCNC(=O)C12CC(COc3cc(-c4ccccc4O)nnc3N)(C1)C2 (centres unmarked) [Compound 76, 3-(((3-amino-6-(2-hydroxyphenyl)pyridazin-4-yl)oxy)methyl)-N-(2-((2-(2-((2-(2,6-dioxopiperidin-3-yl)-1,3-dioxoisoindolin-5-yl)oxy)acetamido)ethyl)(methyl)amino)ethyl)bicyclo[1.1.1]pentane-1-carboxamide] | C (“C” indicates maximum degradation < 50%) | < 50%
6 | Nc1nnc(-c2ccccc2O)cc1OCC12CC(C(=O)NCCCCCCCCNc3cccc4c3CN(C3CCC(=O)NC3=O)C4=O)(C1)C2 (centres unmarked) [Compound 58, 3-(((3-amino-6-(2-hydroxyphenyl)pyridazin-4-yl)oxy)methyl)-N-(8-((2-(2,6-dioxopiperidin-3-yl)-1-oxoisoindolin-4-yl)amino)octyl)bicyclo[1.1.1]pentane-1-carboxamide] | C (“C” indicates maximum degradation < 50%) | < 50%
7 | Nc1nnc(-c2ccccc2O)cc1OCC12CC(CNC(=O)CCOCCOCCNc3ccc4c(c3)C(=O)N(C3CCC(=O)NC3=O)C4=O)(C1)C2 (centres unmarked) [Compound 6, N-[[3-([[3-amino-6-(2-hydroxyphenyl)pyridazin-4-yl]oxy]methyl)bicyclo[1.1.1]pentan-1-yl]methyl]-3-[2-(2-[[2-(2,6-dioxopiperidin-3-yl)-1,3-dioxoisoindol-5-yl]amino]ethoxy)ethoxy]propanamide] | C (“C” indicates maximum degradation < 50%) | < 50%
8 | Nc1nnc(-c2ccccc2O)cc1OCC12CC(C(=O)N3CC4(CCN(CCCNc5ccc6c(c5)C(=O)N(C5CCC(=O)NC5=O)C6=O)CC4)C3)(C1)C2 (centres unmarked) [Compound 98, 5-((3-(2-(3-(((3-amino-6-(2-hydroxyphenyl)pyridazin-4-yl)oxy)methyl)bicyclo[1.1.1]pentane-1-carbonyl)-2,7-diazaspiro[3.5]nonan-7-yl)propyl)amino)-2-(2,6-dioxopiperidin-3-yl)isoindoline-1,3-dione; formic acid] | B (“B” indicates maximum degradation ≥ 50%) | < 50%
9 | Nc1nnc(-c2ccccc2O)cc1OCCC12CC(NC(=O)C3CC3CNC(=O)COc3ccc4c(c3)C(=O)N(C3CCC(=O)NC3=O)C4=O)(C1)C2 (centres unmarked) [Compound 29, N-(3-(2-((3-amino-6-(2-hydroxyphenyl)pyridazin-4-yl)oxy)ethyl)bicyclo[1.1.1]pentan-1-yl)-2-((2-((2-(2,6-dioxopiperidin-3-yl)-1,3-dioxoisoindolin-5-yl)oxy)acetamido)methyl)cyclopropane-1-carboxamide] | C (“C” indicates maximum degradation < 50%) | < 50%
10 | Cc1ncsc1-c1ccc(CNC(=O)[C@@H]2C[C@@H](O)CN2C(=O)[C@@H](NC(=O)CCCCCNC(=O)C23CC(COc4cc(-c5ccccc5O)nnc4N)(C2)C3)C(C)(C)C)cc1 [Compound 70, (2S,4R)-1-((S)-2-(6-(3-(((3-amino-6-(2-hydroxyphenyl)pyridazin-4-yl)oxy)methyl)bicyclo[1.1.1]pentane-1-carboxamido)hexanamido)-3,3-dimethylbutanoyl)-4-hydroxy-N-(4-(4-methylthiazol-5-yl)benzyl)pyrrolidine-2-carboxamide] | B (“B” indicates maximum degradation ≥ 50%) | < 50%
11 | Cc1ncsc1-c1ccc(CNC(=O)[C@@H]2C[C@@H](O)CN2C(=O)[C@@H](NC(=O)CCCC(=O)NC23CC(CCOc4cc(-c5ccccc5O)nnc4N)(C2)C3)C(C)(C)C)cc1 [Compound 46, N1-(3-(2-((3-amino-6-(2-hydroxyphenyl)pyridazin-4-yl)oxy)ethyl)bicyclo[1.1.1]pentan-1-yl)-N5-((S)-1-((2S,4R)-4-hydroxy-2-((4-(4-methylthiazol-5-yl)benzyl)carbamoyl)pyrrolidin-1-yl)-3,3-dimethyl-1-oxobutan-2-yl)glutaramide] | B (“B” indicates maximum degradation ≥ 50%) | < 50%
12 | Nc1nnc(-c2ccccc2O)cc1OCCC12CC(NC(=O)C3CCN(CCOc4ccc5c(c4)C(=O)N(C4CCC(=O)NC4=O)C5=O)CC3)(C1)C2 (centres unmarked) [Compound 32, N-(3-(2-((3-amino-6-(2-hydroxyphenyl)pyridazin-4-yl)oxy)ethyl)bicyclo[1.1.1]pentan-1-yl)-1-(2-((2-(2,6-dioxopiperidin-3-yl)-1,3-dioxoisoindolin-5-yl)oxy)ethyl)piperidine-4-carboxamide] | B (“B” indicates maximum degradation ≥ 50%) | < 50%
13 | Nc1nnc(-c2ccccc2O)cc1OCC12CC(CNC(=O)C3CC3CNC(=O)COc3cccc4c3C(=O)N(C3CCC(=O)NC3=O)C4=O)(C1)C2 (centres unmarked) [Compound 12, N-[[3-([[3-amino-6-(2-hydroxyphenyl)pyridazin-4-yl]oxy]methyl)bicyclo[1.1.1]pentan-1-yl]methyl]-2-[(2-[[2-(2,6-dioxopiperidin-3-yl)-1,3-dioxoisoindol-4-yl]oxy]acetamido)methyl]cyclopropane-1-carboxamide] | C (“C” indicates maximum degradation < 50%) | < 50%
14 | Nc1nnc(-c2ccccc2O)cc1OCC12CC(C(=O)N3CCC(CCN4CCN(c5ccc6c(c5)C(=O)N(C5CCC(=O)NC5=O)C6=O)CC4)CC3)(C1)C2 (centres unmarked) [Compound 94, 5-(4-(2-(1-(3-(((3-amino-6-(2-hydroxyphenyl)pyridazin-4-yl)oxy)methyl)bicyclo[1.1.1]pentane-1-carbonyl)piperidin-4-yl)ethyl)piperazin-1-yl)-2-(2,6-dioxopiperidin-3-yl)isoindoline-1,3-dione] | B (“B” indicates maximum degradation ≥ 50%) | < 50%
15 | Nc1nnc(-c2ccccc2O)cc1OCCC12CC(NC(=O)CCCCOc3cccc4c3C(=O)N(C3CCC(=O)NC3=O)C4=O)(C1)C2 (centres unmarked) [Compound 19, N-(3-(2-((3-amino-6-(2-hydroxyphenyl)pyridazin-4-yl)oxy)ethyl)bicyclo[1.1.1]pentan-1-yl)-5-((2-(2,6-dioxopiperidin-3-yl)-1,3-dioxoisoindolin-4-yl)oxy)pentanamide] | C (“C” indicates maximum degradation < 50%) | < 50%
16 | Nc1nnc(-c2ccccc2O)cc1OCC12CC(C(=O)N3CCN(CCOc4ccc5c(c4)C(=O)N(C4CCC(=O)NC4=O)C5=O)CC3)(C1)C2 (centres unmarked) [Compound 103, 5-(2-(4-(3-(((3-amino-6-(2-hydroxyphenyl)pyridazin-4-yl)oxy)methyl)bicyclo[1.1.1]pentane-1-carbonyl)piperazin-1-yl)ethoxy)-2-(2,6-dioxopiperidin-3-yl)isoindoline-1,3-dione; formic acid] | C (“C” indicates maximum degradation < 50%) | < 50%

From US12552775B2, “Compounds and uses thereof” (Foghorn Therapeutics Inc., priority 2020, dated 2026)
